Results as given in patent publication US12421254B2, “KRAS modulators and uses thereof” (Quanta Therapeutics, Inc., priority 2023, dated 2025).

Experiments:
[1] = biological target: GST-tagged KRAS-G12D (2-169) (Homo sapiens, UniProt P01116, G12D); experiment: Nucleotide exchange assay (NEA), SOS-mediated, HTRF, KRAS G12D; type: biochemical; conditions: Table 4; IC50 extracted at 30 min; 20 nM SOScat; read-out: NEA G12D IC50
From the text: (§1) This activity is tightly regulated by GTPase activating proteins (GAPs) and guanine nucleotide exchange factors (GEFs). GEFs, such as SOS1/2, activate Ras proteins by exchanging GDP for GTP, thus returning Ras to its active conformation (Simanshu, Nissley, & McCormick, 2017). […] Homogenous time resolved fluorescence (HTRF) was used to detect SOS-mediated binding of a fluorescent GTP analog, GTP-DY-647P1 (Jena Biosciences NU-820-647P1) to GST-tagged KRAS-G12D (2-169) or to GST-tagged KRAS-G12V (2-169, Reaction Biology, MSC-11-540).
(§2) GST-tagged KRAS-G12D (2-169) and anti-GST MAb Tb Cryptate Gold (CisBio 61GSTTLB) were diluted into assay buffer (20 mM HEPES, pH 7.3, 150 mM NaCl, 5 mM MgCl2, 0.05% BSA 0.0025% NP40, 1 mM DTT) to prepare a 2.5× donor solution. 5× compound was added to the protein mixture and incubated for 1 h at RT. 2.5× acceptor solution containing SOS1cat (564-1049, Reaction Biology MSC-11-502) and GTP-DY-647P1 were then added to the donor KRAS mixture such that the final concentration of the reaction contained 0.25 nM GST-tagged KRAS-G12D (2-169), 20 nM SOScat, and 150 nM GTP-DY-647P1. The reaction was monitored using at RT with the Envision multimode plate reader (Ex/Em 337/665, […]) up to 90 minutes at 5 minute intervals. To monitor KRAS-G12V SOS-mediated nucleotide exchange, 80 nM SOS was added to reaction instead of 20 nM. All other components were the same as previously described. Data was blanked to reactions without SOS1 and % inhibition was calculated such that DMSO only =0% and blank=100%. Curve fitting was done using a 4 parameter fit. Reported IC50 values were extracted at 30 min and 90 min for the KRAS-G12D and KRAS-G12V assays, respectively.
NEA KRAS G12D IC50 (uM) values of selected compounds are depicted in Table 2 with compounds having a value <0.01 uM as ++++; ≥0.01 uM to 0.1 uM as +++; ≥0.1 uM to 1 uM as ++; ≥1 uM to 20 uM as +; and ≥20 uM as NA.

[2] = biological target: GST-tagged KRAS-G12V (2-169) (Homo sapiens, UniProt P01116, G12V); experiment: Nucleotide exchange assay (NEA), SOS-mediated, HTRF, KRAS G12V; type: biochemical; conditions: Table 4; IC50 extracted at 90 min; 80 nM SOS
GST-tagged KRAS-G12V (2-169), sequence (P01116 2-169 isoform P01116-2 G12V): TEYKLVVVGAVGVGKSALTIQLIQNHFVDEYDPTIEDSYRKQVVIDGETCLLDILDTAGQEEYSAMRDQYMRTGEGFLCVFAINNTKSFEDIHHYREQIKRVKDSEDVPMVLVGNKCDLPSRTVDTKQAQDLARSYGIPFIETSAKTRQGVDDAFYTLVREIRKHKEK
From the text: as §1, §2

GST-tagged KRAS-G12D (2-169), sequence (P01116 2-169 isoform P01116-2 G12D): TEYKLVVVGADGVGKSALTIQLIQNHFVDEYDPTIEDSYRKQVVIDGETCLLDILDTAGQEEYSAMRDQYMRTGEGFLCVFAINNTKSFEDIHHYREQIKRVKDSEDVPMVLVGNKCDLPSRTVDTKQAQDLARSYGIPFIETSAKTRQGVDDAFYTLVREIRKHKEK

Structure (SMILES) | IC50 [1] | IC50 [2]
N#Cc1c(N)sc2c1C1(CC2)CN(c2nc(OCC3(CN4CCOCC4)CC3)nc(OC3COCC3O)n2)C1 (racemic) [Compound 77, 2-amino-1′-[4-[rac-(3S,4S)-4-hydroxytetrahydrofuran-3-yl]oxy-6-[[1-(morpholinomethyl)cyclopropyl]methoxy]-1,3,5-triazin-2-yl]spiro[5,6-dihydrocyclopenta[b]thiophene-4,3′-azetidine]-3-carbonitrile; 2,2,2-trifluoroacetic acid] | 1000 to 20000 nM | 100 to 1000 nM
CN(c1nc(OC[C@@]23CCCN2C[C@H](F)C3)nc(N2CC3(CCc4sc(N)c(C#N)c43)C2)n1)[C@@H]1COC[C@H]1O (racemic) [Compound 90, 2-amino-1′-[4-[[(2R,8S)-2-fluoro-1,2,3,5,6,7-hexahydropyrrolizin-8-yl]methoxy]-6-[[rac-(3R,4S)-4-hydroxytetrahydrofuran-3-yl]-methyl-amino]-1,3,5-triazin-2-yl]spiro[5,6-dihydrocyclopenta[b]thiophene-4,3′-azetidine]-3-carbonitrile] | 100 to 1000 nM | 100 to 1000 nM
CN(c1nc(OC[C@@]23CCCN2C[C@H](F)C3)nc(N2CC3(CCc4sc(N)c(C#N)c43)C2)n1)[C@@H]1CCC[C@@H]1O (racemic) [Compound 92, 2-amino-1′-[4-[[(2R,8S)-2-fluoro-1,2,3,5,6,7-hexahydropyrrolizin-8-yl]methoxy]-6-[[rac-(1R,2S)-2-hydroxycyclopentyl]-methyl-amino]-1,3,5-triazin-2-yl]spiro[5,6-dihydrocyclopenta[b]thiophene-4,3′-azetidine]-3-carbonitrile] | 100 to 1000 nM | 100 to 1000 nM
CN(c1nc(OCC2(CN3CCOCC3)CC2)nc(N2CC3(CCc4sc(N)c(C#N)c43)C2)n1)[C@@H]1COC[C@@H]1O (racemic) [Compound 94, 2-amino-1′-[4-[[rac-(3R,4R)-4-hydroxytetrahydrofuran-3-yl]-methyl-amino]-6-[[1-(morpholinomethyl)cyclopropyl]methoxy]-1,3,5-triazin-2-yl]spiro[5,6-dihydrocyclopenta[b]thiophene-4,3′-azetidine]-3-carbonitrile] | 1000 to 20000 nM | 100 to 1000 nM
N#Cc1c(N)sc2c1C1(CC2)CN(c2nc(OC[C@@]34CCCN3C[C@H](F)C4)nc(N3CCCC(C#N)C(O)C3)n2)C1 (mixture of isomers) [Compound 96, 2-amino-1′-[4-(4-cyano-3-hydroxy-azepan-1-yl)-6-[[rac-(2R,8S)-2-fluoro-1,2,3,5,6,7-hexahydropyrrolizin-8-yl]methoxy]-1,3,5-triazin-2-yl]spiro[5,6-dihydrocyclopenta[b]thiophene-4,3′-azetidine]-3-carbonitrile] | 100 to 1000 nM | 10 to 100 nM
N#Cc1c(N)sc2c1C1(CC2)CN(c2nc(N[C@@H]3COC[C@@H]3O)nc(OC[C@@]34CCCN3C[C@H](F)C4)n2)C1 (racemic) [Compound 103, 2-amino-1′-[4-[[(2R,8S)-2-fluoro-1,2,3,5,6,7-hexahydropyrrolizin-8-yl]methoxy]-6-[[rac-(3R,4R)-4-hydroxytetrahydrofuran-3-yl]amino]-1,3,5-triazin-2-yl]spiro[5,6-dihydrocyclopenta[b]thiophene-4,3′-azetidine]-3-carbonitrile] | 1000 to 20000 nM | 100 to 1000 nM
CN(Cc1ccn[nH]1)c1nc(OC[C@@]23CCCN2C[C@H](F)C3)nc(N2CC3(CCc4sc(N)c(C#N)c43)C2)n1 (racemic) [Compound 105, 2-amino-1′-[4-[methyl(1H-pyrazol-5-ylmethyl)amino]-6-[[rac-(2R,8S)-2-fluoro-1,2,3,5,6,7-hexahydropyrrolizin-8-yl]methoxy]-1,3,5-triazin-2-yl]spiro[5,6-dihydrocyclopenta[b]thiophene-4,3′-azetidine]-3-carbonitrile] | 1000 to 20000 nM | 100 to 1000 nM
C[C@@]1(O)CCCN(c2nc(OC[C@@]34CCCN3C[C@H](F)C4)nc(N3CC4(C3)c3c(sc(N)c3C#N)CS4(=O)=O)n2)C1 (racemic) [Compound 113, 2-amino-5,5-dioxo-1′-[4-[[rac-(2R,8S)-2-fluoro-1,2,3,5,6,7-hexahydropyrrolizin-8-yl]methoxy]-6-[rac-(3R)-3-hydroxy-3-methyl-1-piperidyl]-1,3,5-triazin-2-yl]spiro[6H-thieno[3,4-b]thiophene-4,3′-azetidine]-3-carbonitrile] | 100 to 1000 nM | 100 to 1000 nM
C[C@@]1(O)CCCN(c2nc(OC[C@]34CCCN3[C@H](COc3cc(C(F)(F)F)ncn3)CC4)nc(N3CC4(C3)SCc3sc(N)c(C#N)c34)n2)C1 (racemic) [Compound 252, 2-amino-1′-[4-[(3R)-3-hydroxy-3-methyl-1-piperidyl]-6-[[(3SR,8RS)-3-[[6-(trifluoromethyl)pyrimidin-4-yl]oxymethyl]-1,2,3,5,6,7-hexahydropyrrolizin-8-yl]methoxy]-1,3,5-triazin-2-yl]spiro[6H-thieno[3,4-b]thiophene-4,3′-azetidine]-3-carbonitrile] | < 10 nM | < 10 nM
N#Cc1c(N)sc2c1C1(CN(c3nc(OC[C@@]45CCCN4C[C@H](F)C5)nc(N4C5CCC4COC5)n3)C1)SC2 (racemic) [Compound 274, 2-amino-1′-[4-(3-oxa-8-azabicyclo[3.2.1]octan-8-yl)-6-[[rac-(2R,8S)-2-fluoro-1,2,3,5,6,7-hexahydropyrrolizin-8-yl]methoxy]-1,3,5-triazin-2-yl]spiro[6H-thieno[3,4-b]thiophene-4,3′-azetidine]-3-carbonitrile] | 100 to 1000 nM | 10 to 100 nM
CC(c1nccnc1N)N(C)c1nc(OC[C@@]23CCCN2C[C@H](F)C3)nc(N2CC3(CCc4sc(N)c(C#N)c43)C2)n1 (single isomer, unassigned) [Compound 116B, 2-amino-1′-[4-[[(1*)-1-(3-aminopyrazin-2-yl)ethyl]-methyl-amino]-6-[[(2R,8S)-2-fluoro-1,2,3,5,6,7-hexahydropyrrolizin-8-yl]methoxy]-1,3,5-triazin-2-yl]spiro[5,6-dihydrocyclopenta[b]thiophene-4,3′-azetidine]-3-carbonitrile] | 100 to 1000 nM | 10 to 100 nM
C[C@H](c1cccnc1N)N(C)c1nc(OC[C@@]23CCCN2C[C@H](F)C3)nc(N2CCC3(CCCc4sc(N)c(C#N)c43)C2=O)n1 (single isomer, unassigned) [Compound 175A, (*)-2-amino-1′-(4-(((R)-1-(2-aminopyridin-3-yl)ethyl)(methyl)amino)-6-(((2R,7aS)-2-fluorotetrahydro-1H-pyrrolizin-7a(5H)-yl)methoxy)-1,3,5-triazin-2-yl)-2′-oxo-6,7-dihydro-5H-spiro[benzo[b]thiophene-4,3′-pyrrolidine]-3-carbonitrile] | 10 to 100 nM | < 10 nM
C[C@H](c1cccnc1N)N(C)c1nc(OC[C@@]23CCCN2C[C@H](F)C3)nc(N2CCC3(CCCc4sc(N)c(C#N)c43)C2=O)n1 (single isomer, unassigned) [Compound 175B, (*)-2-amino-1′-(4-(((R)-1-(2-aminopyridin-3-yl)ethyl)(methyl)amino)-6-(((2R,7aS)-2-fluorotetrahydro-1H-pyrrolizin-7a(5H)-yl)methoxy)-1,3,5-triazin-2-yl)-2′-oxo-6,7-dihydro-5H-spiro[benzo[b]thiophene-4,3′-pyrrolidine]-3-carbonitrile] | 100 to 1000 nM | < 10 nM
